In PMC10648204, “Discovery of Novel Biphenyl Carboxylic Acid Derivatives as Potent URAT1 Inhibitors” (Molecules, 2023):

Key:
[1] = biological target: T1, human URAT1 (Homo sapiens, UniProt Q96S37); assay: In vitro URAT1 inhibitory assay (14C-uric acid uptake in HEK293T cells expressing human URAT1); format: cell-based; conditions: HEK293-URAT1 cells, 14C-labeled uric acid substrate; for inhibition at 10 µM: HEK-293T, 10 μM compound, mean of three measurements
T1 construct: expressed in transfected cells; host or cells: HEK293T cells (ATCC CRL-11268)
T1 sequence (Q96S37 1-553): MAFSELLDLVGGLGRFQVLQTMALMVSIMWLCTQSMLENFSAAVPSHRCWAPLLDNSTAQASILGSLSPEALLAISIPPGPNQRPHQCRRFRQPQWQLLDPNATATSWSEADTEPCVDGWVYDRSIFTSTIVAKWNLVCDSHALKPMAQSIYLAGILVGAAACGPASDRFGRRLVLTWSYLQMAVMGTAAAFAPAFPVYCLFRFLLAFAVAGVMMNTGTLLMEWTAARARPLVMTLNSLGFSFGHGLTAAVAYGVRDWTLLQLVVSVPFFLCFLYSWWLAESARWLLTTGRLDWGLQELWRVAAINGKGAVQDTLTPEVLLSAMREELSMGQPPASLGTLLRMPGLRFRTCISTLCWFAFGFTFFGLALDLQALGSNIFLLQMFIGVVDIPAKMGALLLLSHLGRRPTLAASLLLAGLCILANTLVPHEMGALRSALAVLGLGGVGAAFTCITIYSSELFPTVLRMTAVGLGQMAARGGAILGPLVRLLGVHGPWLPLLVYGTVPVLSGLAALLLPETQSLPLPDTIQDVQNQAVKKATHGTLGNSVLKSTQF
Description: All the target compounds were evaluated for their URAT1 inhibitory activities in HEK293-URAT1 cells using ^14C-labeled uric acid as the substrate. […] The SAR exploration on series A compounds mainly focused on the hydrophobic component. […] For series B compounds, the ortho-substituted biphenyl carboxylic acid was initially kept, and various aromatic components were incorporated (B1–B25). […] Different substituents were introduced onto the 4-pyridyl (B15–B21).
In Vitro URAT1 Inhibitory Assay. A transient expression system of human URAT1 in HEK293T cells was constructed to measure ^14C-uric acid transport. […] The cell cryovials were removed from liquid nitrogen storage, and immediately placed on dry ice prior to thawing. […] The cell suspension was transferred into a 15 mL centrifuge tube, and 10 mL complete medium (DMEM +10% FBS +500 μg/mL G418 +1% P/S) was added. After centrifugation at 1000 rpm for 5 min, the supernatant was discarded, and cell precipitation was resuspended in 5 mL complete medium and transferred to a T75 culture flask. […] The uptake assay test could be carried out after cell culture adherent to the well in the 96-well plate. Then, the cells were washed with 200 µL/well of pre-warmed Cl^- free HBSS buffer, and all buffer was removed at the last washing. 50 µL/well of Cl^- free HBSS Buffer containing Uric acid [8-^14C] (2.5 μCi/mL) and samples were added to the cells, and incubated for 8 min. Then, the cells were washed three times with Cl^- free HBSS Buffer and all buffer was removed at the last washing. 50 µL/well of lysis buffer (100 mM NaOH) was added to the lysate cells and stirred at 900 rpm for 5 min. 150 µL/well MicroScint™-40 cocktail was added and agitated at 900 rpm for 5 min. Finally, the 96-plate was counted in a MicroBeta2 (PerkinElmer). The data were analyzed and IC50 values was calculated with GraphPad Prism 6 software.

Structure (SMILES) | inhibition at 10 µM [1] [%] | melting point [°C] | IC50 [1] [nM]
O=C(O)c1ccccc1-c1cccc(C(=O)N2CCCc3ccccc32)c1 [Compound A21] | < 10 | 100 to 102 | –
CN(C(=O)c1ccccc1-c1ccccc1C(=O)O)c1ccccc1 [Compound A16] | 13 | 169 to 172 | –
O=C(O)c1ccccc1-c1ccccc1C(=O)N1CCOc2ccccc21 [Compound A2] | 75 | 174 to 176 | 3900
O=C(O)c1ccccc1-c1ccccc1C(=O)N1CCCc2ccc(Cl)cc21 [Compound A9] | 85 | 233 to 234 | 2200
O=C(O)c1ccccc1-c1ccccc1C(=O)N1CCCc2ccc(-c3ccc(F)cc3)cc21 [Compound A12] | 29 | 245 to 246 | –
O=C(O)c1ccccc1-c1ccccc1C(=O)NCc1ccncc1 [Compound A17] | < 10 | 118 to 120 | –
O=C(O)c1ccccc1-c1ccccc1C(=O)N1CCCc2cc(Br)ccc21 [Compound A7] | 94 | 261 to 262 | 1100
O=C(O)c1ccccc1-c1ccccc1C(=O)N1CCc2ccccc2C1 [Compound A15] | 25 | 171 to 173 | –
COc1ccc2c(c1)CCCN2C(=O)c1ccccc1-c1ccccc1C(=O)O [Compound A10] | 88 | 198 to 200 | 1800
O=C(O)c1ccccc1-c1ccccc1C(=O)N1CCCc2ccc(Br)cc21 [Compound A6] | 84 | 231 to 233 | 1100
O=C(O)c1ccccc1-c1ccccc1C(=O)N1CCCCc2ccccc21 [Compound A5] | 72 | 215 to 217 | –
O=C(O)c1ccccc1-c1ccccc1C(=O)Nc1ccncc1 [Compound A18] | 11 | 190 to 191 | –
O=C(O)c1ccccc1-c1ccccc1C(=O)N1CCCc2ccccc21 [Compound A1] | 89 | – | 930
O=C(O)c1ccccc1-c1ccc(C(=O)N2CCCc3ccccc32)cc1 [Compound A20] | < 10 | 165 to 167 | –
O=C(O)c1ccccc1-c1ccccc1C(=O)N1CCSc2ccccc21 [Compound A3] | 78 | 193 to 195 | –
O=C(O)c1ccccc1-c1ccccc1C(=O)Nc1ccnc2ccccc12 [Compound A19] | 24 | 176 to 178 | –
Cc1ccc2c(c1)CCCN2C(=O)c1ccccc1-c1ccccc1C(=O)O [Compound A11] | 91 | 220 to 222 | 2100
O=C(O)c1ccccc1-c1ccccc1C(=O)N1CCc2ccccc21 [Compound A4] | 77 | 195 to 196 | 4700
COc1cccc(-c2ccc3c(c2)N(C(=O)c2ccccc2-c2ccccc2C(=O)O)CCC3)c1 [Compound A14] | 58 | 177 to 179 | –
O=C(O)c1ccccc1-c1ccccc1C(=O)N1CCCc2c(Br)cccc21 [Compound A8] | 90 | 201 to 202 | 1600

Other lines, results leading:

inhibition at 10 µM [1] [%] | melting point [°C] | IC50 [1] [nM] | Structure (SMILES)
55 | 154 to 156 | – | O=C(O)c1ccccc1-c1ccccc1-c1nc(-c2ccc(Cl)cc2)no1 [Compound B3]
56 | 171 to 175 | – | O=C(O)c1ccccc1-c1ccccc1-c1nc(-c2ccco2)no1 [Compound B8]
64 | 210 to 212 | – | O=C(O)c1ccccc1-c1ccccc1-c1nc(-c2cccnc2)no1 [Compound B13]
44 | 119 to 121 | – | O=C(O)c1ccccc1-c1ccccc1-c1nc(-c2cccc(Br)c2)no1 [Compound B7]
96 | 188 to 190 | 1300 | O=C(NS(=O)(=O)c1ccc(Br)cc1)c1ccccc1-c1ccccc1-c1nc(-c2ccncc2Cl)no1 [Compound B27]
90 | 98 to 100 | 980 | O=C(O)c1ccccc1-c1ccccc1-c1nc(-c2ccnc(F)c2)no1 [Compound B17]
97 | 145 to 147 | 270 | O=C(O)c1ccccc1-c1ccccc1-c1nc(-c2ccnc(Cl)c2)no1 [Compound B16]
18 | 258 to 260 | – | O=C(O)c1ccc(-c2ccccc2-c2nc(-c3ccncc3)no2)cc1 [Compound B29]
69 | 146 to 148 | – | O=C(O)c1ccccc1-c1ccccc1-c1nc(-c2ccsc2)no1 [Compound B10]
89 | 258 to 259 | 1100 | O=C(O)c1ccccc1-c1ccccc1-c1nc(-c2ccnc3ccccc23)no1 [Compound B22]
39 | 173 to 175 | – | O=C(O)c1ccccc1-c1ccccc1-c1nc(-c2ccc(C(F)(F)F)cc2)no1 [Compound B2]
96 | 154 to 156 | 420 | COc1cc(-c2noc(-c3ccccc3-c3ccccc3C(=O)O)n2)ccn1 [Compound B19]
35 | 240 to 242 | – | O=C(O)CCNC(=O)c1ccccc1-c1ccccc1-c1nc(-c2ccncc2Cl)no1 [Compound B26]
61 | 148 to 150 | – | O=C(O)c1ccccc1-c1ccccc1-c1nc(-c2ccc(Br)cc2)no1 [Compound B4]
33 | 237 to 239 | – | O=C(O)c1ccccc1-c1ccccc1-c1nnc(-c2ccncc2)o1 [Compound B30]
68 | 154 to 157 | – | COc1ccc(-c2noc(-c3ccccc3-c3ccccc3C(=O)O)n2)cc1 [Compound B5]
67 | 264 to 266 | – | O=C(O)c1ccccc1-c1ccccc1-c1nc(-c2ccc3ncccc3c2)no1 [Compound B24]
68 | 140 to 142 | – | O=C(O)c1ccccc1-c1ccccc1-c1nc(-c2cccs2)no1 [Compound B9]
42 | 169 to 171 | – | COc1ccc(-c2noc(-c3ccccc3-c3ccccc3C(=O)O)n2)c2ccccc12 [Compound B25]
45 | 151 to 153 | – | Cc1ccc(-c2noc(-c3ccccc3-c3ccccc3C(=O)O)n2)cc1 [Compound B6]
98 | – | 170 | O=C(O)c1ccccc1-c1ccccc1-c1nc(-c2ccncc2Cl)no1 [Compound B21]
27 | 190 to 193 | – | O=C(O)c1ccccc1-c1ccccc1-c1nc(-c2ccccn2)no1 [Compound B12]
30 | 167 to 169 | – | O=C(O)c1ccccc1-c1ccccc1-c1nc(-c2ccncn2)no1 [Compound B11]
76 | 214 to 216 | 3100 | Cc1cc(-c2noc(-c3ccccc3-c3ccccc3C(=O)O)n2)cc(C)n1 [Compound B20]
97 | 165 to 168 | 250 | O=C(O)c1ccccc1-c1ccccc1-c1nc(-c2ccnc(Br)c2)no1 [Compound B15]
74 | 236 to 238 | 6100 | O=C(O)c1ccccc1-c1ccccc1-c1nc(-c2cnc3ccccc3c2)no1 [Compound B23]
88 | 188 to 191 | 1800 | O=C(O)c1ccccc1-c1ccccc1-c1nc(-c2ccncc2)no1 [Compound B14]
